Measured values as given in patent publication US20240279207A1, “SUBSTITUTED ACYL SULFONAMIDES FOR TREATING CANCER” (The Broad Institute, Inc., priority 2020, published 2024).
Read-outs that look alike come from different tables or passages of the source.

Assays:
[1] = tested on: ESR1 transcription in MVLN cells; assay: MVLN reporter assay: repression of ESR1 transcription (luciferase signal); format: cell-based; conditions: Homo sapiens, luciferase signal after 24 h, read-out: MVLN reporter assay, IC50 [M] (arithmetic mean)
Source text: KAT6A controls transcription of the ESR1 gene in breast cancer cells. Compound treatment that interferes with this mechanism was quantified using MVLN cells. These cells constitutively express the ER and are stably transfected with the luciferase (LUC) reporter gene and the corresponding hormone responsive element derived from the 5′-flanking region of the Xenopus Vitellogenin A2 gene (Pons et al., 1990, Demirpense et al., 1993, Joyeux et al., 1993). The repressive effect on ERα transcription activity of a test chemical is directly related to the luciferase measured in the lysate of treated MVLN cells. […] Each sample was prepared as duplicate and rim wells were excluded. For luciferase signal determination 100 μl of a 1:1 mixture of Steadylite plus (Perkin Elmer; 6016759) and assay medium was added after 24 h for 15 minutes and measured in Victor X3 (Perkin Elmer). To exclude any effects caused by cell loss during the treatment, cell density was determined using Alamar Blue (Invitrogen; DAL1100). Prior to the luciferase measurement 10 μl Alamar Blue were added to each well and the plates were incubated for 2 h in the incubator. Then fluorescence was measured with Victor X3 (Perkin Elmer) at 530 nm/590 nm.

[2] = target: T1, Recombinant human His-tagged Kat6a protein (amino acids 194-810) (Homo sapiens, UniProt Q92794); assay: Kat6a activity assay (TR-FRET, acetylation of Histone-H4-derived peptide); format: biochemical; conditions: 60 mins at 22° C., 220 nM H4 peptide, 600 nM Acetyl Coenzyme A, read-out: KAT6A - DPF/HAT domain IC50 [mol/l] (arithmetic mean)
T1 construct: Kat6a protein (amino acids 194-810); His
T1 sequence (Q92794 194-810): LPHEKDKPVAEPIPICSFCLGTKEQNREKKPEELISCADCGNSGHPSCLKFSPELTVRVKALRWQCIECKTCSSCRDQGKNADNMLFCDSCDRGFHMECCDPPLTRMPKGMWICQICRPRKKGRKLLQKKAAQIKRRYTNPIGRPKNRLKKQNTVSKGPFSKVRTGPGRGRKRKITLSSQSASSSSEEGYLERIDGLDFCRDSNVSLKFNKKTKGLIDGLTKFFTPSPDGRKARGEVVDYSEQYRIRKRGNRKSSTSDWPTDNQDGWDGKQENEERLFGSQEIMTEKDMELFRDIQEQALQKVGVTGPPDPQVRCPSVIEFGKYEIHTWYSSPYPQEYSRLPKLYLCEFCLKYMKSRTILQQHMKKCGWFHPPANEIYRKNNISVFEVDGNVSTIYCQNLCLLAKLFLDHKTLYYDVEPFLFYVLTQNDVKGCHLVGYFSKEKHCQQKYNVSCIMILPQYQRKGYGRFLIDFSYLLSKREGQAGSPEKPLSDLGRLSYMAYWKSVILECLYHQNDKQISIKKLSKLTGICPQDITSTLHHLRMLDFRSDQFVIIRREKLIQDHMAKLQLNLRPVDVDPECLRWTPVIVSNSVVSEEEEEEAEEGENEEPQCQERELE
Procedure: Kat6a inhibitory activities of the compounds described in the present invention were quantified using a Fluorescence Resonance Energy Transfer (TR-FRET) assay which measures acetylation of a synthetic, biotinylated Histone-H4-derived peptide by the enzyme.
In this case 50 nl DMSO were used instead of compounds. […] IC50 values were determined by regression analysis based on a 4 parameter equation (minimum, maximum, ICM, Hill; Y=Max+(Min−Max)/(1+(X/ICso) Hill) using the Screener Software (Genedata).

| IC50 ([1]; MVLN, 24 h) | IC50 [2] | Structure (SMILES) | IC50 [1] |
| --- | --- | --- | --- |
| 1.66e-07 M | 18.9 nM | CC(Oc1ccccc1S(=O)(=O)NC(=O)c1cc2c(F)cc(N3CCC3)cc2o1)C(F)(F)F (racemic) [Example 13, 6-(Azetidin-1-yl)-4-fluoro-N-(2-{[-1,1,1-trifluoropropan-2-yl]oxy}benzene-1-sulfonyl)-1-benzofuran-2-carboxamide (rac)] |  |
| 1.34e-07 M | 21.2 nM | Cc1ccc(OC2CCCC2)c(S(=O)(=O)NC(=O)c2cc3c(F)cc(N4CCC4)cc3o2)c1 [Example 9, 6-(Azetidin-1-yl)-N-[2-(cyclopentyloxy)-5-methylbenzene-1-sulfonyl]-4-fluoro-1-benzofuran-2-carboxamide] |  |
| 1.45e-07 M | 75.2 nM | CN(C)c1ccccc1S(=O)(=O)NC(=O)c1cc2c(F)cc(N3CCC3)cc2o1 [Example 11, 6-(Azetidin-1-yl)-N-[2-(dimethylamino)benzene-1-sulfonyl]-4-fluoro-1-benzofuran-2-carboxamide] |  |
| 1.63e-07 M | 42.7 nM | O=C(NS(=O)(=O)c1cccc2c1OCCC2)c1cc2c(F)cc(N3CCC3)cc2o1 [Example 12, 6-(Azetidin-1-yl)-N-(3,4-dihydro-2H-1-benzopyran-8-sulfonyl)-4-fluoro-1-benzofuran-2-carboxamide] |  |
| 1.69e-07 M | 43.5 nM | O=C(NS(=O)(=O)c1c(F)cccc1OC1CCC1)c1cc2c(F)cc(N3CCC3)cc2o1 [Example 16, 6-(Azetidin-1-yl)-N-[2-(cyclobutyloxy)-6-fluorobenzene-1-sulfonyl]-4-fluoro-1-benzofuran-2-carboxamide] |  |
| 1.92e-07 M | 24.2 nM | CC1Cc2cccc(S(=O)(=O)NC(=O)c3cc4c(F)cc(N5CCC5)cc4o3)c2O1 (centres unmarked) [Example 18, 6-(Azetidin-1-yl)-4-fluoro-N-[2-methyl-2,3-dihydro-1-benzofuran-7-sulfonyl]-1-benzofuran-2-carboxamide] |  |
| 7.88e-07 M |  | CC(C)Oc1cccc(Br)c1S(=O)(=O)NC(=O)c1cc2c(F)cc(N3CCC3)cc2o1 [Example 39, 6-(Azetidin-1-yl)-N-{2-bromo-6-[(propan-2-yl)oxy]benzene-1-sulfonyl}-4-fluoro-1-benzofuran-2-carboxamide] |  |

Second part, the compound before the results:

| Structure (SMILES) | IC50 ([1]; MVLN, 24 h) | IC50 [2] | IC50 [1] |
| --- | --- | --- | --- |
| CC(O)c1ccc(Cl)c(S(=O)(=O)NC(=O)c2cc3c(F)cc(N4CCC4)cc3o2)c1 (racemic) [Example 100, 6-(Azetidin-1-yl)-N-[2-chloro-5-(1-hydroxyethyl)benzene-1-sulfonyl]-4-fluoro-1-benzofuran-2-carboxamide (rac)] | 1.29e-06 M | 139 nM |  |
| CCOc1ccccc1S(=O)(=O)NC(=O)c1cc2c(F)cc(N3CCC3CNC(=O)OC)cc2o1 (racemic) [Example 105, Methyl {[1-{2-[(2-ethoxybenzene-1-sulfonyl)carbamoyl]-4-fluoro-1-benzofuran-6-yl}azetidin-2-yl]methyl}carbamate (rac)] | > 2e-05 M | 1120 nM |  |
| CCOc1ccccc1S(=O)(=O)NC(=O)c1cc2c(F)cc(N3CC[C@@H]3C(N)=O)cc2o1 (racemic) [Example 169, 1-{2-[(2-Ethoxybenzene-1-sulfonyl)carbamoyl]-4-fluoro-1-benzofuran-6-yl}azetidine-2-carboxamide (rac)] | > 2e-05 M | 4070 nM |  |
| COc1ccc2cccnc2c1S(=O)(=O)NC(=O)c1cc2c(F)cc(N3CCC3)cc2o1 [Example 8, 6-(Azetidin-1-yl)-4-fluoro-N-(7-methoxyquinoline-8-sulfonyl)-1-benzofuran-2-carboxamide] | 1.25e-07 M | 21 nM |  |
| CN(C(=O)Oc1ccccc1S(=O)(=O)NC(=O)c1cc2c(F)cc(N3CCC3)cc2o1)c1ccccc1 [Example 62, 2-{[6-(Azetidin-1-yl)-4-fluoro-1-benzofuran-2-carbonyl]sulfamoyl}phenyl methyl(phenyl)carbamate] |  |  | 6.43e-06 M |
| COc1ccc(C2=CCN(C(=O)OC(C)(C)C)CC2)cc1S(=O)(=O)NC(=O)c1cc2c(F)cc(N3CCC3)cc2o1 [Example 197, tert-butyl 4-(3-{[6-(azetidin-1-yl)-4-fluoro-1-benzofuran-2-carbonyl]sulfamoyl}-4-methoxyphenyl)-3,6-dihydropyridine-1(2H)-carboxylate] | 1.62e-07 M |  |  |
